Experimental data reported in the supplement of paper PMC12137928.
Structures can show the parent of a compound that is named as a salt.

Test system: HCT116
Conditions: 72 h
How it was run: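 For IC50 and maximal efficacy, four-parameter Hill fits were used. Input values were CellTiter-Glo luminescence from HCT116 cells seeded at 250 per well in 1536-well plates, normalized to vehicle (0%) and positive control (-100%). Pattern correction followed normalization.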

CC1O[C@H](O[C@]2(O[C@H]3CC[C@@]4(C)C(=CC[C@H]5[C@@H]6C[C@H]7[C@H]([C@H](C)[C@H]8CC[C@H](C)CN87)[C@@]6(C)CC[C@@H]54)C3)C[C@@H](O[C@@H]3OC(CO)[C@@H](O)[C@@H](O)C3O)[C@@H](O)C(CO)O2)C(O)[C@@H](O)[C@H]1O (stereo partly drawn) [Solanine alpha]
IC50 cell viability (ICRF193 0 nM): > 45.8 µM | IC50 cell viability (ICRF193 200 nM): > 45.8 µM

O=C(O[C@H]1CN2CCC1CC2)N1CCc2ccccc2[C@@H]1c1ccccc1 [Solifenacin (hydrochloride)]
IC50 cell viability (ICRF193 0 nM): > 45.8 µM | IC50 cell viability (ICRF193 200 nM): > 45.8 µM

C/C=C/C=C/C(=O)O [Sorbic acid]
IC50 cell viability (ICRF193 0 nM): > 45.8 µM | IC50 cell viability (ICRF193 200 nM): > 45.8 µM

CCCCCCCCCCCCCCCC(=O)OC[C@@H](O)[C@H]1OC[C@H](O)[C@H]1O [Sorbitan monohexadecanoate]
IC50 cell viability (ICRF193 0 nM): > 45.8 µM | IC50 cell viability (ICRF193 200 nM): > 45.8 µM

CC(C)NCC(O)c1ccc(NS(C)(=O)=O)cc1 (stereo not drawn) [Sotalol]
IC50 cell viability (ICRF193 0 nM): > 45.8 µM | IC50 cell viability (ICRF193 200 nM): > 45.8 µM

C[C@@H]1CN(c2c(F)c(N)c3c(=O)c(C(=O)O)cn(C4CC4)c3c2F)C[C@H](C)N1 [Sparfloxacin]
IC50 cell viability (ICRF193 0 nM): > 45.8 µM | IC50 cell viability (ICRF193 200 nM): > 45.8 µM

C1CCN2C[C@@H]3C[C@@H](CN4CCCC[C@@H]34)[C@H]2C1 [Sparteine]
IC50 cell viability (ICRF193 0 nM): > 45.8 µM | IC50 cell viability (ICRF193 200 nM): > 45.8 µM

CN[C@@H]1[C@H](O)[C@H](NC)[C@H]2O[C@@]3(O)C(=O)C[C@@H](C)O[C@H]3O[C@@H]2[C@H]1O [Spectinomycin dihydrochloride]
IC50 cell viability (ICRF193 0 nM): > 45.8 µM | IC50 cell viability (ICRF193 200 nM): > 45.8 µM

O=C(CCCN1CCC2(CC1)C(=O)NCN2c1ccccc1)c1ccc(F)cc1 [Spiperone]
IC50 cell viability (ICRF193 0 nM): > 45.8 µM | IC50 cell viability (ICRF193 200 nM): > 45.8 µM

CO[C@@H]1[C@@H](O[C@@H]2O[C@H](C)[C@@H](O[C@H]3C[C@@](C)(O)[C@@H](O)[C@H](C)O3)[C@H](N(C)C)[C@H]2O)[C@@H](CC=O)C[C@@H](C)[C@@H](O[C@H]2CC[C@H](N(C)C)[C@@H](C)O2)/C=C/C=C/C[C@@H](C)OC(=O)C[C@H]1OC(C)=O [Spiramycin II]
IC50 cell viability (ICRF193 0 nM): > 45.8 µM | IC50 cell viability (ICRF193 200 nM): > 45.8 µM

CC(C)CCCC(C)CCCC(C)CCCCC(C)CCCC(C)CCCC(C)C (stereo not drawn) [Squalane]
IC50 cell viability (ICRF193 0 nM): > 45.8 µM | IC50 cell viability (ICRF193 200 nM): > 45.8 µM

CC(C)=CCC/C(C)=C/CC/C(C)=C/CC/C=C(\C)CC/C=C(\C)CCC=C(C)C [Squalene]
IC50 cell viability (ICRF193 0 nM): > 45.8 µM | IC50 cell viability (ICRF193 200 nM): > 45.8 µM

Cc1cn([C@H]2C=C[C@@H](CO)O2)c(=O)[nH]c1=O [Stavudine]
IC50 cell viability (ICRF193 0 nM): > 45.8 µM | IC50 cell viability (ICRF193 200 nM): > 45.8 µM

CC(C)(C)C(O)/C=C/c1ccc2c(c1)OCO2 (stereo not drawn) [Stiripentol]
IC50 cell viability (ICRF193 0 nM): > 45.8 µM | IC50 cell viability (ICRF193 200 nM): > 45.8 µM

CN[C@@H]1[C@H](O[C@H]2[C@H](O[C@H]3[C@H](O)[C@@H](O)[C@H](N=C(N)N)[C@@H](O)[C@@H]3N=C(N)N)O[C@@H](C)[C@]2(O)C=O)O[C@@H](CO)[C@H](O)[C@H]1O [Streptomycin sulfate]
IC50 cell viability (ICRF193 0 nM): > 45.8 µM | IC50 cell viability (ICRF193 200 nM): > 45.8 µM

CN(N=O)C(=O)N[C@@H](C=O)[C@@H](O)[C@H](O)[C@H](O)CO [Streptozotocin]
IC50 cell viability (ICRF193 0 nM): > 45.8 µM | IC50 cell viability (ICRF193 200 nM): > 45.8 µM

N#Cc1c(N(CC(=O)O)CC(=O)O)sc(C(=O)O)c1CC(=O)O [Strontium Ranelate]
IC50 cell viability (ICRF193 0 nM): > 45.8 µM | IC50 cell viability (ICRF193 200 nM): > 45.8 µM

O=C1C[C@@H]2OCC=C3CN4CC[C@]56c7ccccc7N1[C@H]5[C@H]2[C@H]3C[C@H]46 [Strychnine]
IC50 cell viability (ICRF193 0 nM): > 45.8 µM | IC50 cell viability (ICRF193 200 nM): > 45.8 µM

C=Cc1ccccc1 [Styrene]
IC50 cell viability (ICRF193 0 nM): > 45.8 µM | IC50 cell viability (ICRF193 200 nM): > 45.8 µM

C[N+](C)(C)CCOC(=O)CCC(=O)OCC[N+](C)(C)C [Succinylcholine chloride]
IC50 cell viability (ICRF193 0 nM): > 45.8 µM | IC50 cell viability (ICRF193 200 nM): > 45.8 µM

O=C(O)CCC(=O)Nc1ccc(S(=O)(=O)Nc2nccs2)cc1 [Succinylsulfathiazole]
IC50 cell viability (ICRF193 0 nM): > 45.8 µM | IC50 cell viability (ICRF193 200 nM): > 45.8 µM

CC(=O)OC[C@H]1O[C@@](COC(C)=O)(O[C@H]2O[C@H](COC(C)=O)[C@@H](OC(C)=O)[C@H](OC(C)=O)[C@H]2OC(C)=O)[C@@H](OC(C)=O)[C@@H]1OC(C)=O [Sucrose octaacetate]
IC50 cell viability (ICRF193 0 nM): > 45.8 µM | IC50 cell viability (ICRF193 200 nM): > 45.8 µM

O=S(=O)(O)OC[C@H]1O[C@@](COS(=O)(=O)O)(O[C@H]2O[C@H](COS(=O)(=O)O)[C@@H](OS(=O)(=O)O)[C@H](OS(=O)(=O)O)[C@H]2OS(=O)(=O)O)[C@@H](OS(=O)(=O)O)[C@@H]1OS(=O)(=O)O [Sucrose octasulfate, sodium salt]
IC50 cell viability (ICRF193 0 nM): > 45.8 µM | IC50 cell viability (ICRF193 200 nM): > 45.8 µM

OC[C@H]1O[C@@](CO)(O[C@H]2O[C@H](CO)[C@@H](O)[C@H](O)[C@H]2O)[C@@H](O)[C@@H]1O [Sucrose]
IC50 cell viability (ICRF193 0 nM): > 45.8 µM | IC50 cell viability (ICRF193 200 nM): > 45.8 µM

O=C(O)CCSC[C@H]1O[C@@H]2O[C@H]3[C@H](O)[C@@H](O)[C@@H](O[C@H]4[C@H](O)[C@@H](O)[C@@H](O[C@H]5[C@H](O)[C@@H](O)[C@@H](O[C@H]6[C@H](O)[C@@H](O)[C@@H](O[C@H]7[C@H](O)[C@@H](O)[C@@H](O[C@H]8[C@H](O)[C@@H](O)[C@@H](O[C@H]9[C@H](O)[C@@H](O)[C@@H](O[C@H]1[C@H](O)[C@H]2O)O[C@@H]9CSCCC(=O)O)O[C@@H]8CSCCC(=O)O)O[C@@H]7CSCCC(=O)O)O[C@@H]6CSCCC(=O)O)O[C@@H]5CSCCC(=O)O)O[C@@H]4CSCCC(=O)O)O[C@@H]3CSCCC(=O)O [Sugammadex]
IC50 cell viability (ICRF193 0 nM): > 45.8 µM | IC50 cell viability (ICRF193 200 nM): > 45.8 µM

CC1(C)S[C@@H]2[C@H](NC(=O)C(c3ccccc3)S(=O)(=O)O)C(=O)N2[C@H]1C(=O)O (stereo partly drawn) [Sulbenicillin disodium]
IC50 cell viability (ICRF193 0 nM): > 45.8 µM | IC50 cell viability (ICRF193 200 nM): > 45.8 µM

S=C1SCN(Cc2ccccc2)CN1Cc1ccccc1 [Sulbentine]
IC50 cell viability (ICRF193 0 nM): > 45.8 µM | IC50 cell viability (ICRF193 200 nM): > 45.8 µM

CCOC(=O)c1ccc(NC(=O)CN2CCCCC2)cc1 [Sulcaine]
IC50 cell viability (ICRF193 0 nM): > 45.8 µM | IC50 cell viability (ICRF193 200 nM): > 45.8 µM

Nc1ccc(S(=O)(=O)NC(=O)c2ccccc2)cc1 [Sulfabenzamide]
IC50 cell viability (ICRF193 0 nM): > 45.8 µM | IC50 cell viability (ICRF193 200 nM): > 45.8 µM
